Source: PubChem BioAssay (NCI)
Where “and” joins values, the source holds several entries; their conditions need not be identical. Equal entries are not always repeated.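 Where inhibition never reached the appropriate level, the endpoint shown equals the highest concentration tested. Otherwise, values were interpolated linearly from a five-concentration, 48-hour dose response in 96-well plates. The concentration for 50% growth inhibition is given as GI50. At the TGI there is no net growth.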

Assays:
Assay in all cases: growth of human tumour cells (NCI), 48 h
PC-3 prostate = system: PC-3 prostate
HCT-116 colon = system: HCT-116 colon
A498 renal = system: A498 renal
786-0 renal = system: 786-0 renal
CAKI-1 renal = system: CAKI-1 renal
SF-268 CNS = system: SF-268 CNS
NCI-H23 lung = system: NCI-H23 lung
RPMI-8226 leukemia = system: RPMI-8226 leukemia
OVCAR-4 ovarian = system: OVCAR-4 ovarian
OVCAR-3 ovarian = system: OVCAR-3 ovarian

SMILES | GI50 (PC-3 prostate) [µM] | TGI (PC-3 prostate) | GI50 (HCT-116 colon) | TGI (HCT-116 colon) | GI50 (A498 renal) [µM] | TGI (A498 renal) [µM] | GI50 (786-0 renal) | TGI (786-0 renal) | GI50 (CAKI-1 renal) [µM] | TGI (CAKI-1 renal) [µM] | GI50 (SF-268 CNS) | TGI (SF-268 CNS) | GI50 (NCI-H23 lung) | TGI (NCI-H23 lung) | GI50 (RPMI-8226 leukemia) [µM] | TGI (RPMI-8226 leukemia) | GI50 (OVCAR-4 ovarian) | TGI (OVCAR-4 ovarian) | GI50 (OVCAR-3 ovarian) | TGI (OVCAR-3 ovarian)
CN(C)c1ccc2cc3c(cc2c1)Oc1ccccc1N3.[Cl][Zn][Cl] | 3.54 | 14.1 µM | 2.04 µM | 4.34 µM | 16.9 | 34.7 | 2.85 µM | 9.48 µM | 2.91 | 10.3 | 13.6 µM | 27.2 µM | 4.74 µM | 21.7 µM | 3.98 | 31 µM | 2.75 µM | 13.6 µM | 1.5 µM | 3 µM
COc1cc(C(=O)c2cnc(-c3ccc4cc[nH]c4c3)[nH]2)cc(OC)c1OC | 0.0286 | 15.1 µM | 0.0332 µM | 2.23 µM | 0.0136 | 0.0788 | 0.0419 µM | 2.34 µM | 0.0503 | 4.2 | 0.0808 µM | 7.19 µM | 0.0575 µM | 21 µM | 0.0417 | 2.77 µM | 0.993 µM | 20 µM | 0.0195 µM | 0.0477 µM
COc1ccc2[nH]cc(Cc3c[nH]c4ccc(OC)cc34)c2c1 | 19.3 | 39.4 µM | 15.8 µM | 29.2 µM | 3.32 | 14.5 | 38.9 µM | > 100 µM | 19.9 | 44.4 | 22.7 µM | 62.5 µM | 21.7 µM | 40.7 µM | 20.8 | 40.3 µM | 17.6 µM | 40.3 µM | 13.3 µM | 31.3 µM
CN(C)c1ccc(/C=N/n2c(CCCCc3n[nH]c(=S)n3/N=C/c3ccc(N(C)C)cc3)n[nH]c2=S)cc1 | > 100 | > 100 µM | > 100 µM | > 100 µM | > 100 | > 100 | 89.3 µM | > 100 µM | > 100 | > 100 | > 100 µM | > 100 µM | > 100 µM | > 100 µM | > 100 | > 100 µM | > 100 µM | > 100 µM | > 100 µM | > 100 µM
CCOP(=O)(OCC)C(NC(c1ccccc1)c1ccccc1)c1ccsc1 (centres undefined) | 10.9 | 23.9 µM | – | – | 30.8 | 49.6 | 17.2 µM | 31.4 µM | 16 | 33.2 | 15.5 µM | 36.2 µM | 19.9 µM | 35.5 µM | 7.76 | 22 µM | – | – | 16.1 µM | 32.2 µM
C#Cc1cccc(Nc2ncnc3ccc(-c4cnc(N)nc4)cc23)c1 | 1.62 | 11.3 µM | 4.75 µM | 17.3 µM | – | – | 2.67 µM | 14.8 µM | 1.09 | 4.93 | 1.79 µM | 20.6 µM | 3.67 µM | > 100 µM | 1.43 | 5.41 µM | 2.59 µM | 14.8 µM | 1.93 µM | 10.5 µM
O=C(CCN1CCCC1)Nc1ccc2c(Nc3ccc(Br)cc3)c3ccccc3nc2c1 | 1.4 | 3.04 µM | – | – | 1.7 | 5.82 | 1.5 µM | 3.02 µM | 1.53 | 2.87 | 1.33 µM | 2.81 µM | 1.47 µM | 2.92 µM | 1.73 | 6.07 µM | 1.51 µM | 2.92 µM | 1.61 µM | 3.11 µM
COC(=O)c1cc2c([nH]c3ccccc32)c(-c2nc3ccccc3cc2CO)n1 | > 100 | > 100 µM | 7.93 µM | > 100 µM | 30.4 | > 100 | 6.2 µM | > 100 µM | > 100 | > 100 | > 100 µM | > 100 µM | > 100 µM | > 100 µM | – | – | > 100 µM | > 100 µM | > 100 µM | > 100 µM
CCOC1Oc2ccccc2C(=O)/C1=C\Nc1ccc(C(=O)O)c(O)c1 (centres undefined) | 39.2 | > 100 µM | 15.7 µM | 35.1 µM | 30.6 | 73.7 | 30.1 µM | > 100 µM | 20.9 | 44 | 26.1 µM | 80.8 µM | 21.4 µM | 63.1 µM | 20 | > 100 µM | – | – | 25.2 µM | 56.3 µM
CCCCNP1(NCCCC)=NP(NCCCC)(NCCCC)=NP(NCCCC)(NCCCC)=NP(NCCCC)(NCCCC)=N1 | 0.24 | 12.4 µM | 0.209 µM | 0.81 µM | 1.93 | 8.01 | 1.34 µM | 5.26 µM | 9.3 | 36 | 1.53 µM | 21.2 µM | 0.271 µM | 3.2 µM | – | – | 0.18 µM | 18.1 µM | 0.243 µM | 0.871 µM
O=C(O)C1C2C=CC(O2)C1C(=O)NCc1ccncc1 (centres undefined) | – | > 100 µM | – | > 100 µM | – | > 100 | – | > 100 µM | – | > 100 | – | > 100 µM | – | – | – | > 100 µM | – | > 100 µM | – | > 100 µM
CC(=O)OCC1OC([S-])C(OC(C)=O)C(OC(C)=O)C1OC(C)=O.[Au+].c1ccc(CN2[CH-]N(Cc3ccccc3)C(c3ccccc3)=C2c2ccccc2)cc1 | – | 4.73 µM and 1.17 µM | 3.08 µM and 0.554 µM | 9.95 µM and 2.52 µM | – | – | 1.84 µM and 0.384 µM | 3.63 µM and 1.18 µM | 0.866 | 3.37 | 2.43 µM and 0.458 µM | 6.11 µM and 1.78 µM | 1.93 µM and 0.408 µM | 4.86 µM and 3.11 µM | – | 5.99 µM and 1.93 µM | 3.54 µM and 0.688 µM | 15.3 µM and 5.82 µM | 1.8 µM and 0.444 µM | 3.25 µM and 1.28 µM
CN1CCN(C(=O)[C@@]2(C)CC[C@]3(C)CC[C@]4(C)C(=CC[C@@H]5[C@@]6(C)CC[C@H](OC(=O)c7cccnc7)C(C)(C)[C@@H]6CC[C@]54C)[C@@H]3C2)CC1 | 1.61 | 3.54 µM | 1.48 µM | 2.87 µM | 4.38 | 18.4 | 1.75 µM | 3.22 µM | – | – | 1.84 µM | 3.85 µM | 1.62 µM | 3.39 µM | 1.87 | 5.81 µM | 1.78 µM | 3.59 µM | 1.74 µM | 3.29 µM
